Results reported in the supplement of paper PMC11061612.

Experiments:
[1] = system: COLO-684 (Endometrial Carcinoma); experiment: combination Emax (second highest fraction inhibited in the dose matrix, 72 h); higher = more inhibition; extreme values may be limits of the assay
Summary of the method: (§1)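 After 24 hours at 37°C and 5% CO2 in 1536-well plates, cells in DMEM/F12 or RPMI plus 10% FBS received two-drug dose matrices for 72 hours. Viability came from CellTiter-Glo 2.0 luminescence and was scaled as inhibition, anchored at 0 by vehicle wells and at 1 by blank wells. Combination Emax is taken as the second-highest inhibition in the matrix, and Bliss excess as the observed combination effect less EA + EB − EA·EB, with EA and EB the single-agent effects.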

[2] = system: NCI-H1755 (Lung Adenocarcinoma); experiment: as above
Summary of the method: as §1

[3] = system: SK-MM-2 (Plasma Cell Myeloma); experiment: as above
Summary of the method: as §1

[4] = system: RMG-I (Ovarian Carcinoma); experiment: as above
Summary of the method: as §1

[5] = system: NCI-H810 (Non-Small Cell Lung Carcinoma); experiment: as above
Summary of the method: as §1

[6] = system: PC-14 (Lung Adenocarcinoma); experiment: as above
Summary of the method: as §1

[7] = system: Becker (Low Grade Glioma); experiment: as above
Summary of the method: as §1

[8] = system: CML-T1 (Chronic Myelogenous Leukemia); experiment: as above
Summary of the method: as §1

[9] = system: OV-90 (Ovarian Carcinoma); experiment: as above
Summary of the method: as §1

[10] = system: HCC-44 (Lung Adenocarcinoma); experiment: as above
Summary of the method: as §1

[11] = system: LOUCY (T-Lymphoblastic Leukemia); experiment: as above
Summary of the method: as §1

[12] = system: NKM-1 (Acute Myeloid Leukemia); experiment: as above
Summary of the method: as §1

[13] = system: EB-3 (Burkitt's Lymphoma); experiment: as above
Summary of the method: as §1

KYM-1 (Rhabdomyosarcoma) [14] = experiment: as above
Summary of the method: as §1

[15] = system: PANC-02-03 (Pancreatic Carcinoma); experiment: as above
Summary of the method: as §1

[16] = system: KYSE-70 (Esophageal Squamous Cell Carcinoma); experiment: as above
Summary of the method: as §1

[17] = system: LAMA-84 (Chronic Myelogenous Leukemia); experiment: as above
Summary of the method: as §1

[18] = system: FLO-1 (Esophageal Adenocarcinoma); experiment: as above
Summary of the method: as §1

[19] = system: SW684 (Other Solid Carcinomas); experiment: as above
Summary of the method: as §1

CHL-1 (Melanoma) [20] = experiment: as above
Summary of the method: as §1

[21] = system: COLO-684 (Endometrial Carcinoma); experiment: Bliss excess, mean over the matrix (fraction); higher = more synergy
Summary of the method: as §1

[22] = system: NCI-H1755 (Lung Adenocarcinoma); experiment: as above
Summary of the method: as §1

[23] = system: SK-MM-2 (Plasma Cell Myeloma); experiment: as above
Summary of the method: as §1

[24] = system: RMG-I (Ovarian Carcinoma); experiment: as above
Summary of the method: as §1

[25] = system: NCI-H810 (Non-Small Cell Lung Carcinoma); experiment: as above
Summary of the method: as §1

[26] = system: PC-14 (Lung Adenocarcinoma); experiment: as above
Summary of the method: as §1

[27] = system: Becker (Low Grade Glioma); experiment: as above
Summary of the method: as §1

[28] = system: CML-T1 (Chronic Myelogenous Leukemia); experiment: as above
Summary of the method: as §1

[29] = system: OV-90 (Ovarian Carcinoma); experiment: as above
Summary of the method: as §1

[30] = system: HCC-44 (Lung Adenocarcinoma); experiment: as above
Summary of the method: as §1

[31] = system: LOUCY (T-Lymphoblastic Leukemia); experiment: as above
Summary of the method: as §1

[32] = system: NKM-1 (Acute Myeloid Leukemia); experiment: as above
Summary of the method: as §1

[33] = system: EB-3 (Burkitt's Lymphoma); experiment: as above
Summary of the method: as §1

KYM-1 (Rhabdomyosarcoma) [34] = experiment: as above
Summary of the method: as §1

[35] = system: PANC-02-03 (Pancreatic Carcinoma); experiment: as above
Summary of the method: as §1

[36] = system: KYSE-70 (Esophageal Squamous Cell Carcinoma); experiment: as above
Summary of the method: as §1

[37] = system: LAMA-84 (Chronic Myelogenous Leukemia); experiment: as above
Summary of the method: as §1

[38] = system: FLO-1 (Esophageal Adenocarcinoma); experiment: as above
Summary of the method: as §1

[39] = system: SW684 (Other Solid Carcinomas); experiment: as above
Summary of the method: as §1

CHL-1 (Melanoma) [40] = experiment: as above
Summary of the method: as §1
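Throughout, for Bliss excess, mean over the matrix: after 72 h of two-drug dosing.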

Compound	combination Emax [1]	combination Emax [2]	combination Emax [3]	combination Emax [4]	combination Emax [5]	combination Emax [6]	combination Emax [7]	combination Emax [8]	combination Emax [9]	combination Emax [10]	combination Emax [11]	combination Emax [12]	combination Emax [13]	combination Emax (KYM-1 (Rhabdomyosarcoma) [14])	combination Emax [15]	combination Emax [16]	combination Emax [17]	combination Emax [18]	combination Emax [19]	combination Emax (CHL-1 (Melanoma) [20])	Bliss excess [21]	Bliss excess [22]	Bliss excess [23]	Bliss excess [24]	Bliss excess [25]	Bliss excess [26]	Bliss excess [27]	Bliss excess [28]	Bliss excess [29]	Bliss excess [30]	Bliss excess [31]	Bliss excess [32]	Bliss excess [33]	Bliss excess (KYM-1 (Rhabdomyosarcoma) [34])	Bliss excess [35]	Bliss excess [36]	Bliss excess [37]	Bliss excess [38]	Bliss excess [39]	Bliss excess (CHL-1 (Melanoma) [40])
C[C@@H](Nc1cc(F)cc(F)c1)c1cc(C(=O)N(C)C)cc2c(=O)cc(N3CCOCC3)oc12 [AZD8186] + CC(=O)c1c(C)c2cnc(Nc3ccc(N4CCNCC4)cn3)nc2n(C2CCCC2)c1=O [Palbociclib] (first compound max 10 µM, 7x7, partner max 10 µM)	0.729	0.602	0.35	0.497	0.371	0.469	0.628	0.931	0.137	0.728	0.504	0.83	0.399	0.702	0.343	0.355	0.554	0.599	0.503	0.458	0.0174	0.069	0.0299	0.0104	-0.0224	0.0852	0.127	-0.0045	-0.0541	0.0091	0.187	-0.0435	0.0129	-0.031	-0.0157	-0.0106	0.083	0.0479	-0.0005	0.0104
C[C@@H](Oc1cc(-c2cnn(C3CCNCC3)c2)cnc1N)c1c(Cl)ccc(F)c1Cl [Crizotinib] + CC1=C(C(=CC=C1)Cl)NC(=O)C2=CN=C(S2)NC3=CC(=NC(=N3)C)N4CCN(CC4)CCO [Dasatinib] (first compound max 10 µM, 7x7, partner max 2 µM)	0.41	0.983	0.303	0.737	0.244	1	0.648	0.987	0.591	0.962	0.674	0.971	0.639	0.917	0.606	0.423	1	1	0.758	0.349	-0.049	0.0591	-0.0416	0.0034	-0.0726	0.0183	0.1	-0.0958	0.0304	0.101	-0.0383	-0.0197	-0.0181	-0.0389	-0.0328	-0.0068	0.0136	0.0436	0.0215	-0.0401
C[C@@H](Oc1cc(-c2cnn(C3CCNCC3)c2)cnc1N)c1c(Cl)ccc(F)c1Cl [Crizotinib] + Cn1cnc2c(F)c(Nc3ccc(Br)cc3Cl)c(C(=O)NOCCO)cc21 [Selumetinib] (first compound max 10 µM, 7x7, partner max 10 µM)	0.452	0.983	0.377	0.59	0.212	0.89	0.661	0.957	0.742	0.916	0.724	0.906	0.625	0.92	0.713	0.255	1	0.878	0.39	0.0893	-0.0629	-0.006	-0.0442	0.0091	-0.123	-0.0183	0.0409	-0.0165	0.0569	-0.0103	-0.0249	-0.0543	-0.0834	-0.0202	-0.0458	-0.0364	0.0176	0.031	-0.0262	-0.0464
CS(=O)(=O)CCNCc1ccc(-c2ccc3ncnc(Nc4ccc(OCc5cccc(F)c5)c(Cl)c4)c3c2)o1 [Lapatinib] + Cn1cnc2c(F)c(Nc3ccc(Br)cc3Cl)c(C(=O)NOCCO)cc21 [Selumetinib] (first compound max 10 µM, 7x7, partner max 10 µM)	0.349	0.539	0.126	0.586	0.121	0.989	0.579	0.637	0.729	0.749	0.584	0.652	0.697	0.407	0.805	0.214	0.912	0.572	0.281	0.475	-0.0658	-0.0173	-0.0116	-0.0833	-0.0554	0.0206	-0.0589	-0.0822	-0.0289	0.0326	0.0378	0.0001	-0.0414	0.0148	0.0604	-0.0319	0.0352	-0.004	-0.0411	-0.0114
O=C(c1cc(Cc2n[nH]c(=O)c3ccccc23)ccc1F)N1CCN(C(=O)C2CC2)CC1 [Olaparib] + CC1(C)CCC(CN2CCN(c3ccc(C(=O)NS(=O)(=O)c4ccc(NCC5CCOCC5)c([N+](=O)[O-])c4)c(Oc4cnc5[nH]ccc5c4)c3)CC2)=C(c2ccc(Cl)cc2)C1 [Venetoclax] (first compound max 10 µM, 7x7, partner max 1 µM)	0.259	0.126	1	0.282	0.271	0.142	0.198	0.946	0.204	0.177	1	0.976	0.162	0.446	0.107	0.0967	0.211	0.209	0.141	0.171	-0.0346	-0.0395	0.0141	-0.0398	-0.0541	-0.0071	-0.0134	0.0685	-0.0377	-0.0278	0.0365	0.257	-0.0328	-0.0388	-0.0386	-0.039	-0.003	-0.0251	-0.0606	-0.0355
O=C(c1cc(Cc2n[nH]c(=O)c3ccccc23)ccc1F)N1CCN(C(=O)C2CC2)CC1 [Olaparib] + CN(CC[C@H](CSC1=CC=CC=C1)NC2=C(C=C(C=C2)S(=O)(=O)NC(=O)C3=CC=C(C=C3)N4CCC(CC4)[C@H](C5=CC=CC=C5C6=CC=C(C=C6)Cl)O)S(=O)(=O)C(F)(F)F)CCO [AZD4320] (first compound max 10 µM, 7x7, partner max 1 µM)	0.213	0.159	1	0.534	0.659	0.199	0.164	0.999	0.546	0.173	1	1	0.158	0.576	0.198	0.151	0.617	0.39	0.228	0.2	-0.0372	-0.0387	0.0047	-0.0382	-0.0701	-0.0113	0.0148	0.0456	-0.0165	-0.0367	-0.0261	0.0827	-0.0394	-0.0543	-0.0488	-0.0377	-0.0603	-0.0338	-0.0717	-0.0175
O=C(c1cc(Cc2n[nH]c(=O)c3ccccc23)ccc1F)N1CCN(C(=O)C2CC2)CC1 [Olaparib] + COc1nnc2ccc(N3CCC(c4ccc(OCCN5CCN(C)C(=O)[C@H]5C)cc4)CC3)nn12 [AZD5153] (first compound max 10 µM, 7x7, partner max 1 µM)	0.564	0.498	0.875	0.536	0.671	0.431	0.397	0.852	0.402	0.593	0.749	0.898	0.694	0.862	0.591	0.389	0.8	0.575	0.415	0.418	-0.0132	-0.0453	-0.032	-0.0288	-0.0406	-0.0284	-0.0004	-0.0113	-0.0144	-0.0341	0.0304	-0.0231	-0.0549	-0.0479	-0.0683	-0.0305	-0.0335	-0.0174	-0.0857	-0.0554
